Measured values published in PubChem BioAssay (NCI).
Where “and” joins values, the source holds several entries; their conditions need not be identical. Equal entries are not always repeated.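 Briefly, cells in 96-well plates were exposed to five compound concentrations for 48 h, and endpoints were estimated by linear interpolation. GI50 is the concentration that inhibits growth by half. TGI marks complete inhibition of growth.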

What was measured:
Assay in all cases: DTP human tumour cell line panel, 48 h
CAKI-1 renal = test system: CAKI-1 renal
COLO 205 colon = test system: COLO 205 colon
HOP-62 NSCLC = test system: HOP-62 NSCLC
HS 578T breast = test system: HS 578T breast
LOX IMVI melanoma = test system: LOX IMVI melanoma
MDA-MB-435 = test system: MDA-MB-435
OVCAR-3 ovarian = test system: OVCAR-3 ovarian
SK-MEL-28 melanoma = test system: SK-MEL-28 melanoma
SW-620 colon = test system: SW-620 colon
U251 CNS = test system: U251 CNS

For CC[C@]12C=CCN3CC[C@@]4(c5ccc(OC)cc5N(C)[C@H]4[C@@](O)(C(=O)OC)[C@@H]1OC(=O)CCC[P+](c1ccccc1)(c1ccccc1)c1ccccc1)[C@@H]32, the GI50 (CAKI-1 renal) was 4.67 µM and 2.8 µM, the TGI (CAKI-1 renal) was 12.3 µM and 10.4 µM and the GI50 (COLO 205 colon) was 0.161 µM and 0.208 µM. The TGI (COLO 205 colon) was 0.611 µM and 0.454 µM, the GI50 (HOP-62 NSCLC) was 1.84 µM and 2.18 µM and the TGI (HOP-62 NSCLC) was 7.71 µM and 7.08 µM. The GI50 (HS 578T breast) was 1.21 µM and 1.15 µM, the TGI (HS 578T breast) was 6.71 µM and 5.07 µM and the GI50 (LOX IMVI melanoma) was 0.923 µM and 0.662 µM. The TGI (LOX IMVI melanoma) was 6 µM and 2.18 µM, the GI50 (MDA-MB-435) was 0.239 µM and 0.348 µM and the TGI (MDA-MB-435) was 0.879 µM and 1.23 µM. The GI50 (OVCAR-3 ovarian) was 0.291 µM and 0.447 µM, the TGI (OVCAR-3 ovarian) was 2.97 µM and 1.99 µM and the GI50 (SK-MEL-28 melanoma) was 0.274 µM and 0.442 µM. The TGI (SK-MEL-28 melanoma) was 1.06 µM and 1.67 µM, the GI50 (SW-620 colon) was 1.01 µM and 0.749 µM and the TGI (SW-620 colon) was 7.04 µM and 11.4 µM. For the same compound, the GI50 (U251 CNS) was 0.487 µM and 0.336 µM and the TGI (U251 CNS) was 6.59 µM and 2.64 µM.

Compound CCCCCCCCCC/C=C/CC(=O)SCCNC(=O)CCNC(=O)[C@@H](O)C(C)(C)COP(=O)(O)OP(=O)(O)OCC1OC(n2cnc3c(N)ncnc32)C(O)C1OP(=O)(O)O (stereo not given in full) has a TGI (CAKI-1 renal) of over 10 µM, a TGI (COLO 205 colon) of over 10 µM and a TGI (HOP-62 NSCLC) of over 10 µM. It also gave a TGI (HS 578T breast) of over 10 µM, a TGI (LOX IMVI melanoma) of over 10 µM and a TGI (MDA-MB-435) of over 10 µM. It also gave a TGI (OVCAR-3 ovarian) of over 10 µM, a TGI (SK-MEL-28 melanoma) of over 10 µM and a TGI (SW-620 colon) of over 10 µM. It also gave a TGI (U251 CNS) of over 10 µM.

C=C(C=O)C1CCC2(C(=O)O)CCC3(C)C(CCC4C5(C)CCC(O)C(C)(C)C5CCC43C)C12 (stereo not given) showed a GI50 (COLO 205 colon) of 2.64 µM, a TGI (COLO 205 colon) of 6.18 µM and a GI50 (HOP-62 NSCLC) of 4.93 µM. For the same compound, the TGI (HOP-62 NSCLC) was 19.7 µM, the GI50 (HS 578T breast) was 10.1 µM and the TGI (HS 578T breast) was over 100 µM. It also gave a GI50 (LOX IMVI melanoma) of 1.57 µM, a TGI (LOX IMVI melanoma) of 3.11 µM and a GI50 (MDA-MB-435) of 2.74 µM. For the same compound, the TGI (MDA-MB-435) was 24.3 µM, the GI50 (OVCAR-3 ovarian) was 1.44 µM and the TGI (OVCAR-3 ovarian) was 2.87 µM. For the same compound, the GI50 (SK-MEL-28 melanoma) was 1.96 µM, the TGI (SK-MEL-28 melanoma) was 4.62 µM and the GI50 (SW-620 colon) was 1.99 µM. For the same compound, the TGI (SW-620 colon) was 5.07 µM, the GI50 (U251 CNS) was 1.64 µM and the TGI (U251 CNS) was 3.74 µM.

O=C1NC(=Nc2ccccc2)S/C1=C\c1ccc2ncccc2c1 showed a GI50 (CAKI-1 renal) of over 25 µM, a TGI (CAKI-1 renal) of over 25 µM and a GI50 (COLO 205 colon) of over 25 µM. For the same compound, the TGI (COLO 205 colon) was over 25 µM, the GI50 (HOP-62 NSCLC) was 4.46 µM and the TGI (HOP-62 NSCLC) was over 25 µM. The GI50 (HS 578T breast) was over 11.8 µM, the TGI (HS 578T breast) was over 25 µM and the GI50 (LOX IMVI melanoma) was over 25 µM. The TGI (LOX IMVI melanoma) was over 25 µM, the GI50 (MDA-MB-435) was 0.62 µM and the TGI (MDA-MB-435) was 1.88 µM. For the same compound, the GI50 (OVCAR-3 ovarian) was 1.11 µM, the TGI (OVCAR-3 ovarian) was over 25 µM and the GI50 (SK-MEL-28 melanoma) was over 25 µM. For the same compound, the TGI (SK-MEL-28 melanoma) was over 25 µM, the GI50 (SW-620 colon) was 0.965 µM and the TGI (SW-620 colon) was over 25 µM. The GI50 (U251 CNS) was over 5.13 µM and the TGI (U251 CNS) was over 25 µM.

Work on COc1ccc2c(c1)CCC1C2CC[C@@]2(C)C1CC1=CC(COC(C)=O)C3C(=O)c4ccccc4C(=O)C3C12 (stereo not given in full) yielded a GI50 (CAKI-1 renal) of over 100 µM, a TGI (CAKI-1 renal) of over 100 µM and a GI50 (COLO 205 colon) of over 100 µM. For the same compound, the TGI (COLO 205 colon) was over 100 µM, the GI50 (HOP-62 NSCLC) was over 100 µM and the TGI (HOP-62 NSCLC) was over 100 µM. For the same compound, the GI50 (HS 578T breast) was 89 µM, the TGI (HS 578T breast) was over 100 µM and the GI50 (LOX IMVI melanoma) was over 100 µM. It also gave a TGI (LOX IMVI melanoma) of over 100 µM, a GI50 (MDA-MB-435) of over 100 µM and a TGI (MDA-MB-435) of over 100 µM. For the same compound, the GI50 (OVCAR-3 ovarian) was over 100 µM, the TGI (OVCAR-3 ovarian) was over 100 µM and the GI50 (SK-MEL-28 melanoma) was over 100 µM. For the same compound, the TGI (SK-MEL-28 melanoma) was over 100 µM, the GI50 (SW-620 colon) was over 100 µM and the TGI (SW-620 colon) was over 100 µM. For the same compound, the GI50 (U251 CNS) was over 100 µM and the TGI (U251 CNS) was over 100 µM.

In the case of CCN1CCN(c2ccc(Nc3cc(N(C)C(=O)Nc4c(Cl)c(OC)cc(OC)c4Cl)ncn3)cc2)CC1, the GI50 (CAKI-1 renal) is reported as 4.19 µM, the TGI (CAKI-1 renal) is reported as over 48.2 µM and the GI50 (COLO 205 colon) is reported as 1.93 µM. The TGI (COLO 205 colon) was 3.47 µM, the GI50 (HOP-62 NSCLC) was 4.03 µM and the TGI (HOP-62 NSCLC) was 15.5 µM. It also gave a GI50 (HS 578T breast) of 1.34 µM, a TGI (HS 578T breast) of 9.2 µM and a GI50 (LOX IMVI melanoma) of 1.48 µM. For the same compound, the TGI (LOX IMVI melanoma) was 2.91 µM, the GI50 (MDA-MB-435) was 1.86 µM and the TGI (MDA-MB-435) was 3.71 µM. The GI50 (OVCAR-3 ovarian) was 5.67 µM, the TGI (OVCAR-3 ovarian) was 15.9 µM and the GI50 (SK-MEL-28 melanoma) was 1.87 µM. It also gave a TGI (SK-MEL-28 melanoma) of 3.46 µM, a GI50 (SW-620 colon) of 2.42 µM and a TGI (SW-620 colon) of 9.76 µM. The GI50 (U251 CNS) was 1.47 µM and the TGI (U251 CNS) was 3.71 µM.

O=C(Nc1ccc(OS(=O)(=O)c2ccccc2)cc1)C12CC3CC(CC(C3)C1)C2 was tested, and the GI50 (CAKI-1 renal) was 7.08 µM, the TGI (CAKI-1 renal) was over 100 µM and the GI50 (COLO 205 colon) was 0.873 µM. The TGI (COLO 205 colon) was over 100 µM, the GI50 (HOP-62 NSCLC) was over 100 µM and the TGI (HOP-62 NSCLC) was over 100 µM. For the same compound, the GI50 (HS 578T breast) was 7.29 µM, the TGI (HS 578T breast) was over 100 µM and the GI50 (LOX IMVI melanoma) was 4.38 µM. For the same compound, the TGI (LOX IMVI melanoma) was over 100 µM, the GI50 (MDA-MB-435) was over 100 µM and the TGI (MDA-MB-435) was over 100 µM. It also gave a GI50 (SK-MEL-28 melanoma) of over 100 µM, a TGI (SK-MEL-28 melanoma) of over 100 µM and a GI50 (SW-620 colon) of 1.97 µM. For the same compound, the TGI (SW-620 colon) was over 100 µM, the GI50 (U251 CNS) was 4.81 µM and the TGI (U251 CNS) was over 100 µM.

With C=C(C)[C@@]12OC3(/C=C/C=C/CCCCC)O[C@@H]1[C@@H]1[C@@H]4O[C@]4(CO)[C@@H](O)[C@]4(O)C(=O)C(C)=C[C@H]4[C@@]1(O3)[C@H](C)[C@H]2OC(=O)c1ccccc1 the GI50 (CAKI-1 renal) was under 0.01 µM, the TGI (CAKI-1 renal) was 0.0347 µM and the GI50 (COLO 205 colon) was under 0.01 µM. The TGI (COLO 205 colon) was 1.6 µM, the GI50 (HOP-62 NSCLC) was under 0.01 µM and the TGI (HOP-62 NSCLC) was 4.84 µM. For the same compound, the GI50 (HS 578T breast) was under 0.01 µM, the TGI (HS 578T breast) was 2.21 µM and the GI50 (LOX IMVI melanoma) was 1.1 µM. It also gave a TGI (LOX IMVI melanoma) of 2.29 µM, a GI50 (MDA-MB-435) of under 0.01 µM and a TGI (MDA-MB-435) of 4.56 µM. The GI50 (OVCAR-3 ovarian) was 1.68 µM, the TGI (OVCAR-3 ovarian) was 3.08 µM and the GI50 (SK-MEL-28 melanoma) was 1.18 µM. It also gave a TGI (SK-MEL-28 melanoma) of 2.42 µM, a GI50 (U251 CNS) of 1.24 µM and a TGI (U251 CNS) of 2.48 µM.

NC(=NCCCOc1ccc(Cl)cc1)Nc1ccc(C(F)(F)F)cc1 showed a GI50 (CAKI-1 renal) of 2.48 µM, a TGI (CAKI-1 renal) of 9.03 µM and a GI50 (COLO 205 colon) of 1.54 µM. The TGI (COLO 205 colon) was 3.25 µM, the GI50 (HOP-62 NSCLC) was 2.28 µM and the TGI (HOP-62 NSCLC) was 6.43 µM. The GI50 (HS 578T breast) was 3.35 µM, the TGI (HS 578T breast) was 18.8 µM and the GI50 (LOX IMVI melanoma) was 1.46 µM. The TGI (LOX IMVI melanoma) was 2.77 µM, the GI50 (MDA-MB-435) was 1.73 µM and the TGI (MDA-MB-435) was 3.45 µM. The GI50 (OVCAR-3 ovarian) was 2.26 µM, the TGI (OVCAR-3 ovarian) was 6.14 µM and the GI50 (SW-620 colon) was 1.99 µM. The TGI (SW-620 colon) was 5.99 µM, the GI50 (U251 CNS) was 1.71 µM and the TGI (U251 CNS) was 3.89 µM.

With CC(C)=C[C@@H]1C[C@H](C)[C@H]2CC[C@H](C)C3=C2[C@](O)(OC3=O)[C@]1(C)O the GI50 (CAKI-1 renal) was over 100 µM, the TGI (CAKI-1 renal) was over 100 µM and the GI50 (COLO 205 colon) was over 100 µM. It also gave a TGI (COLO 205 colon) of over 100 µM, a GI50 (HS 578T breast) of over 100 µM and a TGI (HS 578T breast) of over 100 µM. It also gave a GI50 (LOX IMVI melanoma) of over 100 µM, a TGI (LOX IMVI melanoma) of over 100 µM and a GI50 (MDA-MB-435) of over 100 µM. It also gave a TGI (MDA-MB-435) of over 100 µM, a GI50 (OVCAR-3 ovarian) of over 100 µM and a TGI (OVCAR-3 ovarian) of over 100 µM. The GI50 (SK-MEL-28 melanoma) was over 100 µM, the TGI (SK-MEL-28 melanoma) was over 100 µM and the GI50 (SW-620 colon) was over 100 µM. For the same compound, the TGI (SW-620 colon) was over 100 µM, the GI50 (U251 CNS) was over 100 µM and the TGI (U251 CNS) was over 100 µM.
